Data from the NIST ThermoML archive (doi:10.1021/acs.jced.5b00285).

Conditions: 101.33 kPa, Liquid; for electrical conductivity: Alternating current cell with electrodes; for mass density: Vibrating tube method

CCCCCCCCn1cc[n+](C)c1.O=S(=O)([N-]S(=O)(=O)C(F)(F)F)C(F)(F)F
Conditions | electrical conductivity [S/m]
273.15 K | 0.0308
278.15 K | 0.0432
283.15 K | 0.059
288.15 K | 0.0784
293.15 K | 0.102
298.15 K | 0.131
303.15 K | 0.164
308.15 K | 0.204
313.15 K | 0.246
318.15 K | 0.298
323.15 K | 0.351
328.15 K | 0.415
333.15 K | 0.478
338.15 K | 0.556
343.15 K | 0.627
348.15 K | 0.72
353.15 K | 0.801
358.15 K | 0.906
368.15 K | 1.11
378.15 K | 1.34
388.15 K | 1.59
398.15 K | 1.85
408.15 K | 2.13
418.15 K | 2.42
428.15 K | 2.72
438.15 K | 3.04
448.15 K | 3.36
458.15 K | 3.69
468.15 K | 4.03

CCCCCC[n+]1ccn(C)c1.O=S(=O)([N-]S(=O)(=O)C(F)(F)F)C(F)(F)F
Conditions | electrical conductivity [S/m] | mass density [kg/m3] | viscosity [mPa·s]
278.15 K | 0.0776 | 1391.02 | 210.6
283.15 K | – | 1386.34 | –
288.15 K | 0.136 | 1381.65 | 116.7
293.15 K | – | 1376.98 | –
298.15 K | 0.218 | 1372.35 | 70.51
303.15 K | – | 1367.74 | –
308.15 K | 0.328 | 1363.15 | 45.51
313.15 K | – | 1358.58 | –
318.15 K | 0.466 | 1354.02 | 31.03
323.15 K | – | 1349.49 | –
328.15 K | 0.634 | 1344.97 | 22.14
333.15 K | – | 1340.47 | –
338.15 K | 0.83 | 1335.98 | 16.4
343.15 K | – | 1331.51 | –
348.15 K | 1.05 | 1327.05 | 12.59
353.15 K | – | 1322.61 | –
358.15 K | 1.3 | 1318.18 | 9.957
363.15 K | – | 1313.77 | –
368.15 K | 1.58 | – | 8.066
378.15 K | 1.88 | – | 6.673
388.15 K | 2.19 | – | 5.623
398.15 K | 2.53 | – | 4.819
408.15 K | 2.88 | – | 4.19
418.15 K | 3.24 | – | –
428.15 K | 3.62 | – | –
438.15 K | 4.01 | – | –
448.15 K | 4.41 | – | –
458.15 K | 4.82 | – | –
468.15 K | 5.24 | – | –

CCCCn1cc[n+](C)c1.O=S(=O)([N-]S(=O)(=O)C(F)(F)C(F)(F)F)C(F)(F)C(F)(F)F [1-butyl-3-methylimidazolium bis(perfluoroethylsulfonyl)imide]
Conditions | electrical conductivity [S/m] | mass density [kg/m3] | viscosity [mPa·s]
273.15 K | 0.0324 | 1539.6 | 579.1
278.15 K | 0.046 | 1534 | 398.8
283.15 K | 0.0634 | 1528.5 | 282.2
288.15 K | 0.0853 | 1523.88 | 205.3
293.15 K | 0.112 | 1518.55 | 153.3
298.15 K | 0.145 | 1513.25 | 115.9
303.15 K | 0.183 | 1507.96 | 89.72
308.15 K | 0.227 | – | –
313.15 K | 0.278 | 1497.47 | 56.57
318.15 K | 0.336 | – | –
323.15 K | 0.4 | 1487.06 | 37.86
328.15 K | 0.475 | – | –
333.15 K | 0.549 | 1476.73 | 26.63
338.15 K | 0.638 | – | –
343.15 K | 0.724 | 1466.47 | 19.48
348.15 K | 0.831 | – | –
353.15 K | 0.928 | 1456.27 | 14.74
358.15 K | 1.05 | – | –
363.15 K | – | 1446.14 | 11.48
368.15 K | 1.29 | – | –
378.15 K | 1.56 | – | –
388.15 K | 1.86 | – | –
398.15 K | 2.16 | – | –
408.15 K | 2.49 | – | –
418.15 K | 2.83 | – | –
428.15 K | 3.19 | – | –
438.15 K | 3.56 | – | –
448.15 K | 3.94 | – | –
458.15 K | 4.33 | – | –
468.15 K | 4.72 | – | –

CC(=O)[O-].CCn1cc[n+](C)c1 [1-ethyl-3-methylimidazolium acetate]
Conditions | electrical conductivity [S/m] | mass density [kg/m3] | viscosity [mPa·s]
278.15 K | – | 1111.95 | 701.2
288.15 K | – | 1105.67 | 288
298.15 K | 0.278 | 1099.44 | 141.1
308.15 K | 0.471 | 1093.24 | 78.27
318.15 K | 0.733 | 1087.13 | 47.69
328.15 K | 1.07 | 1081.09 | 31.26
338.15 K | 1.48 | 1075.11 | 21.77
348.15 K | 1.96 | 1069.17 | 16.01
358.15 K | 2.5 | 1063.3 | 12.19
368.15 K | 3.11 | – | 9.558
378.15 K | 3.8 | – | 7.71
388.15 K | 4.53 | – | 6.362
398.15 K | 5.31 | – | 5.356
408.15 K | 6.13 | – | 4.589
418.15 K | 6.92 | – | –
